Values after ≈ are worked out from the molar mass of the structure shown.
Columns and labels:
[1] = system: HT-29; assay: Cytotoxicity against human HT-29 assessed as cell growth at high concentration; format: functional
[2] = system: KM12; assay: Cytotoxicity against human KM12 assessed as cell growth at high concentration; format: functional
[3] = system: OVCAR-5; assay: Cytotoxicity against human OVCAR5 assessed as cell growth at high concentration; format: functional
[4] = system: U-251; assay: Cytotoxicity against human U251 assessed as cell growth at high concentration; format: functional
[5] = Cytotoxicity against human HEL cells; format: cell-based
[6] = system: Human alphaherpesvirus 3; assay: Antiviral activity against Varicella-zoster virus Oka expressing thymidine kinase infected in HEL cells assessed as reduction in plaque formation; format: functional, organism-based; conditions: Human alphaherpesvirus 3, strain Oka vaccine
[7] = system: UO-31; assay: Cytotoxicity against human UO31 assessed as cell growth at high concentration; format: functional
[8] = system: Pseudomonas aeruginosa; assay: Antibacterial activity against Pseudomonas aeruginosa MTCC 424 after 24 hrs by broth dilution method; format: functional; conditions: MTCC 424, 24 h
[9] = system: Aspergillus niger; assay: Antifungal activity against Aspergillus niger MTCC 282; format: functional
[10] = system: Cytomegalovirus; assay: Antiviral activity against Cytomegalovirus AD-169 infected in HEL cells assessed as reduction in plaque formation; format: functional, organism-based; conditions: Human betaherpesvirus 5, AD-169, HEL
[11] = system: Staphylococcus aureus; assay: Antibacterial activity against Staphylococcus aureus MTCC 96 after 24 hrs by broth dilution method; format: functional; conditions: MTCC 96, 24 h
[12] = system: Aspergillus niger; assay: Antifungal activity against Aspergillus niger MTCC 282 at 250 ug/ml after 74 hrs by Kirby-Bauer method; format: functional; conditions: MTCC 282, 74 h, read-out: IZ
[13] = system: HCT-15; assay: Cytotoxicity against human HCT15 assessed as cell growth at high concentration; format: functional
[14] = system: Human immunodeficiency virus 1; assay: Antiviral activity against HIV1 3B infected in MT4 cells assessed as inhibition of virus-induced cytopathogenicity by MTT assay; format: functional, organism-based; conditions: Human immunodeficiency virus 1, 3B
[15] = system: RPMI-8226; assay: Cytotoxicity against human RPMI8226 assessed as cell growth at high concentration; format: functional
[16] = system: SK-OV-3; assay: Cytotoxicity against human SKOV3 assessed as cell growth at high concentration; format: functional
[17] = system: MCF7; assay: Cytotoxicity against human MCF7 assessed as cell growth at high concentration; format: functional
[18] = system: NCI-H322M; assay: Cytotoxicity against human NCI-H322M assessed as cell growth at high concentration; format: functional
[19] = system: MDA-MB-435; assay: Cytotoxicity against human MDA-MB-435 assessed as cell growth at high concentration; format: functional
[20] = system: HL-60(TB); assay: Cytotoxicity against human HL-60(TB) assessed as cell growth at high concentration; format: functional
[21] = system: Human immunodeficiency virus 2; assay: Antiviral activity against HIV2 ROD infected in MT4 cells assessed as inhibition of virus-induced cytopathogenicity by MTT assay; format: functional, organism-based; conditions: Human immunodeficiency virus 2, ISOLATE ROD
[22] = system: HOP-92; assay: Cytotoxicity against human HOP92 assessed as cell growth at high concentration; format: functional
[23] = system: IGROV-1; assay: Cytotoxicity against human IGROV1 assessed as cell growth at high concentration; format: functional
[24] = system: SF-295; assay: Cytotoxicity against human SF295 assessed as cell growth at high concentration; format: functional

## Cc1ccc(-[n+]2noc([O-])c2CN2CCNCC2)cc1
[1]
  Activity: 105.21%
[2]
  Activity: 91.06%
[3]
  Activity: 96.81%
[4]
  Activity: 91.33%
[5]
  CC50: 46 µg/mL (≈ 168 µM)
[6]
  EC50: > 20 µg/mL
[7]
  Activity: 70.1%
[8]
  MIC: 50 µg/mL (≈ 182 µM)
[9]
  MIC: 200 µg/mL (≈ 729 µM)
[10]
  EC50: > 20 µg/mL
[11]
  MIC: 200 µg/mL (≈ 729 µM)
[12]
  zone of inhibition at 250 µg/mL: 25 mm
[13]
  Activity: 102.72%
[14]
  IC50: > 32.6 µg/mL
[15]
  Activity: 100.12%
[16]
  Activity: 97.27%
[17]
  Activity: 90.74%
[18]
  Activity: 103.75%
[19]
  Activity: 103.5%
[20]
  Activity: 118.68%
[21]
  IC50: > 32.6 µg/mL
[22]
  Activity: 76.22%
[23]
  Activity: 101.72%
[24]
  Activity: 98.69%

## Cc1ccc(-[n+]2noc([O-])c2CN2CCN(c3cccc(Cl)c3)CC2)cc1
[1]
  Activity: 90.87%
[2]
  Activity: 99.21%
[3]
  Activity: 94.62%
[4]
  Activity: 82.08%
[5]
  CC50: 38.2 µg/mL (≈ 99.3 µM)
[6]
  EC50: > 20 µg/mL
[7]
  Activity: 61.64%
[8]
  MIC: 150 µg/mL (≈ 390 µM)
[9]
  MIC: 500 µg/mL (≈ 1300 µM)
[10]
  EC50: 15.3 µg/mL (≈ 39.8 µM)
[11]
  MIC: 62.5 µg/mL (≈ 162 µM)
[12]
  zone of inhibition at 250 µg/mL: 23 mm
[13]
  Activity: 77.65%
[14]
  IC50: > 27.4 µg/mL
[15]
  Activity: 72.54%
[16]
  Activity: 99.53%
[17]
  Activity: 92.1%
[18]
  Activity: 106.64%
[19]
  Activity: 100.2%
[21]
  IC50: > 27.4 µg/mL
[22]
  Activity: 72.29%
[23]
  Activity: 98.49%
[24]
  Activity: 78.19%

Reference: ChEMBL document CHEMBL3044741, “Synthesis of novel biologically active methylene derivatives of sydnones” (Med Chem Res, 2013)
